Data: patent US11046673B1, “Tetrazolinone compounds and its use” (SUMITOMO CHEMICAL COMPANY, LIMITED, priority 2016, dated 2021)

Tested on: wheat rust fungi (Puccinia recondita)
Experiment: Test Example 13 / Comparative Test Example 1: wheat rust, foliar spray
Assay type: in vivo
Details: wheat (cv Shirogane), 12.5 ppm foliar spray, inoculated after 5 days
Procedure: A plastic pot was filled with soil and thereto wheat (cv; Shirogane) seeds were sown and the plants were grown in a greenhouse for 9 days. Any of the present compounds 1, 2, 3, 5, 6, 7, 8, 9, 10, 12, 13, 14, 15, 18, 19, 20, 21, 26, 27 and 28 each of which was made to a formulation according to the similar method to that of Formulation Example 6, was adjusted with water so as to be 12.5 ppm, and the adjusted solutions were sprayed to foliar parts so as to adhere adequately on the leaves of the above-mentioned wheat. After spraying the adjusted solutions, the plants were air-dried and were then cultivated at 20° C. under lighting for 5 days. The spores of wheat rust fungi (Puccinia recondita) were sprinkling-inoculated. After the inoculation, the plants were placed under a dark and humid condition at 23° C. for 1 day and were then cultivated at 20° C. under lighting for 8 days, and a lesion area was observed.
A plastic pot was filled with soils and thereto was seeded wheat (cv; Shirogane) and the plants were grown in a greenhouse for 9 days. 1-(2-{[2-methyl-4-(1-methyl-1H-pyrazol-3-yl)phenoxy]methyl}-3-methylphenyl)-4-m ethyl-4,5-dihydrotetrazole-5-one which was made to a formulation according to the similar method to that of Formulation Example 6 was adjusted with water so as to be 12.5 ppm. […]

**Q.** With `Cc1cc(-c2ccn(C)n2)ccc1OCc1c(C)cccc1-n1nnn(C)c1=O` [1-(2-{[2-methyl-4-(1-methyl-1H-pyrazol-3-yl)phenoxy]methyl}-3-methylphenyl)-4-m ethyl-4,5-dihydrotetrazole-5-one] as the molecule, how does the “lesion area compared to the lesion area in untreated plants” value read?
**A.** The value was ≥ 70%.
